The source of these data is patent US20080138291A1, “Sulfonamide Derivatives Having Carbonic Anhydrase Inhibiting Activity and their Use as Therapeutic and Diagnostic Agents” (UNION LIFE SCIENCES LTD., priority 2005, published 2008).

Where two headings read alike, the source gives them in different places.

In one series the target is hCA IX (Homo sapiens, UniProt Q16790). Briefly: CA inhibition, CO2 hydration method, isozyme IX (catalytic domain). The class given is biochemical.
The target in a further series is hCA I (Homo sapiens, UniProt P00915). Briefly: CA inhibition, CO2 hydration method, isozyme I. It is filed as biochemical. The settings on record: read-out: KI hCA I.
Chain of hCA I (P00915 whole entry): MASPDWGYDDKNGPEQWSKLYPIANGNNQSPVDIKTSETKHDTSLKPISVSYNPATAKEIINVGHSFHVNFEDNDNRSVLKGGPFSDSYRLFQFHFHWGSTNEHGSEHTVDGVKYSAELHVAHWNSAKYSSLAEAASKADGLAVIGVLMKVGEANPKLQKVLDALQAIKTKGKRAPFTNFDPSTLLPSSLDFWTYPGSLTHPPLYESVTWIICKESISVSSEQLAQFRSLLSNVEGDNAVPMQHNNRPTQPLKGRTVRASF
Another series addresses hCA II (Homo sapiens, UniProt P00918). Briefly: CA inhibition, CO2 hydration method, isozyme II. It is filed as biochemical. The settings on record: for Ki: human cloned isozyme, CO2 hydration method; for hCA II inhibitors, ranking in the series: discussion of Table 1.
The next series concerns the target hCA XII (Homo sapiens, UniProt O43570). Nature of the series: CA inhibition, CO2 hydration method, isozyme XII (catalytic domain). It is filed as biochemical. The settings on record: Table 2, catalytic domain of human cloned isozyme.
The next series concerns human red cells. Nature of the series: Ex vivo penetration through red blood cell membranes.
The mark [1] stands for this setting: Table 1, catalytic domain of human cloned isozyme.

Chain of hCA XII (O43570 30-289 limits assumed): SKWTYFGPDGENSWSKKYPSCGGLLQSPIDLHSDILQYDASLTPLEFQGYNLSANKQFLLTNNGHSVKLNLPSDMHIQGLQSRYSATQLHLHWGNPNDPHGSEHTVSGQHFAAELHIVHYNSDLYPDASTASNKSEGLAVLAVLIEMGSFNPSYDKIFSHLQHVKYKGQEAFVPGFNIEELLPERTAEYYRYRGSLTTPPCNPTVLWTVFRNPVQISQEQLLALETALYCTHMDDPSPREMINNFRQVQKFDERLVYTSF

On to `NS(=O)(=O)c1ccc(NC(=O)Nc2ccc(-c3c4ccc(=O)cc-4oc4cc(O)ccc34)c(C(=O)O)c2)c(Cl)c1` [compound 7], for which the Ki at hCA IX (Table 2, catalytic domain of human cloned isozyme) is 22 nM; at hCA I (Table 2, human cloned isozyme), 1330 nM; at hCA II (Table 2) it was 43 nM; on hCA XII, 12 nM.
Regarding `NS(=O)(=O)c1ccc(CNS(=O)(=O)c2ccc(NC(=S)Nc3ccc(-c4c5ccc(=O)cc-5oc5cc(O)ccc45)c(C(=O)O)c3)cc2)cc1` [5j], the Ki stood at 20 nM at hCA IX (setting [1]); 630 nM on hCA I (Table 1, human cloned isozyme); 34 nM on hCA II (Table 1). Moreover, the “hCA II inhibitors, ranking in the series” value at hCA II is listed as “best hCA II inhibitors in this series”.
With `NS(=O)(=O)c1ccc(NC(=S)Nc2ccc(-c3c4ccc(=O)cc-4oc4cc(O)ccc34)c(C(=O)O)c2)c(Cl)c1` [5f], the inhibition constant (Ki) turned out to be 32 nM at hCA IX (setting [1]); 950 nM at hCA I (Table 1, human cloned isozyme); 52 nM at hCA II (Table 1).
Regarding `NS(=O)(=O)c1ccc(NC(=S)Nc2ccc(-c3c4ccc(=O)cc-4oc4cc(O)ccc34)c(C(=O)O)c2)c(Br)c1` [5g], the inhibitory constant (Ki) on hCA IX (setting [1]) is 35 nM; on hCA I (Table 1, human cloned isozyme), 1100 nM; at hCA II (Table 1), 43 nM.
As to `NS(=O)(=O)c1ccc(CCNC(=O)Nc2ccc(-c3c4ccc(=O)cc-4oc4cc(O)ccc34)c(C(=O)O)c2)cc1` [compound 5, (4-Sulfamoylphenylethyl)ureido fluorescein], the Ki at hCA I (Table 2, human cloned isozyme) is 1340 nM; on hCA II (Table 2) it was 35 nM; on hCA XII, 7 nM.
Turning to `NS(=O)(=O)c1ccc(NNC(=S)Nc2ccc(-c3c4ccc(=O)cc-4oc4cc(O)ccc34)c(C(=O)O)c2)cc1` [5d], the Ki on hCA IX (setting [1]) is 25 nM; on hCA I (Table 1, human cloned isozyme), 1200 nM; on hCA II (Table 1), 40 nM.
For `NS(=O)(=O)c1ccc(CNC(=S)Nc2ccc(-c3c4ccc(=O)cc-4oc4cc(O)ccc34)c(C(=O)O)c2)cc1` [5b, (4-sulfamoylphenylmethyl)thioureido fluorescein], the inhibition constant (Ki) on hCA IX (setting [1]) turned out to be 26 nM; on hCA I (Table 1, human cloned isozyme), 1450 nM. For the same molecule, the “[sulfonamide] in red blood cells, t = 30 min, HPLC” value in the series on human red cells (30 min, 3 mM sulfonamide in 5 mM Tris buffer pH 7.4, HPLC method) came to 0.5 µM. In addition, in the series with human red cells (30 min, 3 mM sulfonamide in 5 mM Tris buffer pH 7.4, electronic spectroscopy), the “[sulfonamide] in red blood cells, t = 30 min, ES” value was found to be 0.8 µM. Further, in the series with human red cells (60 min, 3 mM sulfonamide in 5 mM Tris buffer pH 7.4, HPLC method), the “[sulfonamide] in red blood cells, t = 60 min, HPLC” value turned out to be 0.8 µM. In addition, the “[sulfonamide] in red blood cells, t = 60 min, ES” value in the series with human red cells (60 min, 3 mM sulfonamide in 5 mM Tris buffer pH 7.4, electronic spectroscopy) amounted to 0.8 µM. Moreover, in the series on human red cells (48 h, 3 mM sulfonamide in 5 mM Tris buffer pH 7.4, HPLC method), the “[sulfonamide] in red blood cells, t = 48 h, HPLC” value was 10.1 µM. Also, in the series on human red cells (48 h, 3 mM sulfonamide in 5 mM Tris buffer pH 7.4, electronic spectroscopy), the “[sulfonamide] in red blood cells, t = 48 h, ES” value was 2.5 µM. In the series on human red cells (human RBCs, 30-60 min, pH 7.4), the “membrane permeability at exposure times of 30-60 min” value is reported as “decreased membrane permeability”. Also, in the series on human red cells (human RBCs, 48 hours, pH 7.4), the “membrane permeability after 48 hours of exposure” value is given as “slightly more permeant”.
For `NS(=O)(=O)c1ccc(NC(=S)Nc2ccc(-c3c4ccc(=O)cc-4oc4cc(O)ccc34)c(C(=O)O)c2)c(I)c1` [5h, (2-Iodo-4-sulfamoylphenyl)thioureido fluorescein], the Ki at hCA IX (setting [1]) came out at 31 nM; on hCA I (Table 1, human cloned isozyme) it was 1070 nM; at hCA II (Table 1) it was 40 nM.
The matching figures for `NS(=O)(=O)c1cccc(NC(=S)Nc2ccc(-c3c4ccc(=O)cc-4oc4cc(O)ccc34)c(C(=O)O)c2)c1` [5i, (3-Sulfamoylphenyl)thioureido fluorescein]: 34 nM, 1400 nM and 52 nM.
For `NS(=O)(=O)c1nnc(NS(=O)(=O)c2ccc(NC(=S)Nc3ccc(-c4c5ccc(=O)cc-5oc5cc(O)ccc45)c(C(=O)O)c3)cc2)s1` [5k, [4-(5-Sulfamoyl-[1,3,4]thiadiazol-2-ylsulfamoyl)-phenyl]-thioureido fluorescein], the Ki on hCA IX (setting [1]) came to 16 nM; on hCA I (Table 1, human cloned isozyme) it was 480 nM; on hCA II (Table 1) it was 27 nM. The “hCA II inhibitors, ranking in the series” value at hCA II is listed as “best hCA II inhibitors in this series”.
Take `NS(=O)(=O)c1ccc(NC(=S)Nc2ccc(-c3c4ccc(=O)cc-4oc4cc(O)ccc34)c(C(=O)O)c2)cc1` [5a, (4-Sulfamoylphenyl)thioureido fluorescein]: the Ki amounted to 29 nM on hCA IX (setting [1]); 1500 nM at hCA I (Table 1, human cloned isozyme); 41 nM at hCA II (Table 1).
As to `NS(=O)(=O)c1ccc(NC(=S)Nc2ccc(-c3c4ccc(=O)cc-4oc4cc(O)ccc34)c(C(=O)O)c2)c(F)c1` [5e], the Ki was found to be 30 nM at hCA IX (setting [1]) and 980 nM at hCA I (Table 1, human cloned isozyme).

As usually defined, the Ki is a measure of affinity in units of concentration, obtained from inhibition or displacement.
